What was measured:
3T3-L1 adipocytes = assay: In vitro cytokine measurement (real time PCR of transcripts) in adipocytes; assay type: cell-based, mouse
Description: Cell growth media consisted of Dulbecco's modified Eagle's medium supplemented with 10% heat-inactivated fetal bovine serum (Sigma, St. Louis, Mo., U.S.A.) and 1× penicillin-streptomycin (Gibco, Carlsbad, Calif., U.S.A.). Cells were maintained in a humidified atmosphere of 95% air and 5% CO2.
Two days after reaching confluence in growth media, adipogenesis was induced by incubating cells in growth media containing 0.25 μM dexamethasone (Sigma), 0.5 mM IBMX (Sigma), and 1 μM insulin (Sigma). After an additional 2 days in growth media containing 1 μM insulin, cells were grown for 6-8 days in normal growth media.
Total RNA was isolated using the RNeasy Mini Kit (Qiagen, Valencia, Calif., U.S.A.). RNA was then treated with 2 units of DNase I (Ambion, Austin, Tex., U.S.A.) at 37° C. for 30 min. Reverse transcription was performed according to the manufacturer's instructions. Briefly, the reverse transcription reaction mixture consisted of 1 μg DNase 1-treated RNA, 500 ng oligo-dT12-18, 10 mM dNTP, 40 units RNasin (Promega, Madison, Wis., U.S.A.), and 200 units of reverse transcriptase SUPERSCRIPT III™ (Invitrogen, Carlsbad, Calif., U.S.A.). cDNA synthesis was carried out at 50° C. for 1 hr followed by inactivation of reverse transcriptase at 70° C. for 15 min.
Mouse macrophages (RAW 264.7) and […] preadipocytes (3T3-L1) were obtained from the University of North Carolina Tissue Culture Facility. Cell maintenance and 3T3-L1 preadipocyte differentiation is described herein below. For pharmacological experiments, cells were seeded at a density of 5×10^5 cells/well in a 12-well plate (Corning). Total RNA was isolated and reverse transcribed as described in the supplementary materials. TNFα, IL-1β, and IL-6 transcripts were quantitated in quadruplicate by real time polymerase chain reaction using TAQMAN® Gene Expression Assays (Applied Biosystems, Foster City, Calif., U.S.A.) in an ABI PRISM 7000 Sequence Detection System. TNFα, IL-1β, and IL-6 transcript levels were normalized to Glyceraldehyde-3-phosphate dehydrogenase (GAPDH).

Sprague-Dawley rats = assay: Mechanical and thermal pain behavior testing (von Frey monofilaments, radiant heat); assay type: in vivo, rat; settings: for blockade of OR486-induced hyperalgesia / heightened pain sensitivity: antagonist i.p. prior to OR486; for paw withdrawal latency to radiant heat after OR486, selective βAR antagonists: i.p. 10 min prior to OR486, ICI118,551 5.0 mg/kg; for paw withdrawal latency to radiant heat after OR486, selective βAR antagonists / paw withdrawal frequency to mechanical stimuli after OR486, selective βAR antagonists / paw withdrawal threshold to mechanical stimuli after OR486, selective βAR antagonists: SR59230A 5 or 50 mg/kg, betaxolol 0.1, 1.0, 10 mg/kg, relative to vehicle prior to OR486; for paw withdrawal frequency to mechanical stimuli after OR486, selective βAR antagonists / paw withdrawal threshold to mechanical stimuli after OR486, selective βAR antagonists: i.p. 10 min prior to OR486, ICI118,551 0.5 or 5.0 mg/kg; for paw withdrawal frequency to mechanical stimuli, antagonist in the absence of OR486 / paw withdrawal latency to radiant heat, antagonist in the absence of OR486 / paw withdrawal threshold to mechanical stimuli, antagonist in the absence of OR486: i.p. 10 min prior to vehicle, phentolamine 3, propranolol 3, SCH23390 0.2, spiperone 0.2, betaxolol 1.0, ICI118,551 0.5, SR59230A 5 mg/kg, relative to vehicle
Description: Rats were placed in plexiglass cages positioned over an elevated perforated stainless steel platform and habituated to the environment for 15-25 min prior to testing. Paw withdrawal threshold to punctate mechanical stimulation was assessed using the up-down method of Chaplan et al. (1994). A series of nine calibrated filaments (with bending forces of 0.40, 0.68, 1.1, 2.1, 3.4, 5.7, 8.4, 13.2, and 25.0 g; Sammons Preston Rolyan, Bolingbrook, Ill., U.S.A.) with approximately equal logarithmic spacing between stimuli (Mean±SEM: 0.232±0.04 units) were presented to the hind paw in successive order, whether ascending or descending. Filaments were positioned in contact with the hind paw for a duration of 3 s or until a withdrawal response occurred. Testing was initiated with the middle hair of the series (3.4 g). In the absence of a paw withdrawal response, an incrementally stronger filament was presented and in the event of a paw withdrawal, an incrementally weaker filament was presented. After the initial response threshold was crossed, this procedure was repeated four times in order to obtain a total of six responses in the immediate vicinity of the threshold. The presence of paw withdrawal (X) and absence of withdrawal (O) was noted together with the terminal filament used in the series of six responses. The 50% g threshold=(10^[Xf+kδ])/10,000, where Xf=value (in log units) of the final von Frey hair used; k=tabular value of pattern of positive (X) and negative (O) responses, and δ=mean difference (in log units) between stimuli.
Immediately following determination of the response threshold, paw withdrawal frequency (%) to punctate mechanical stimulation was assessed. A von Frey monofilament with a calibrated bending force of 25 g was presented to the hind paw 10 times for a duration of 1 s with an interstimulus interval of approximately 1 s. Mechanical hyperalgesia was defined as an increase in the percentage frequency ([# of paw withdrawals/10]×100) of paw withdrawal evoked by stimulation with von Frey monofilaments.
Thermal hyperalgesia was evaluated using the radiant heat method of Hargreaves et al. (1988) in the same animals evaluated for responsiveness to von Frey monofilaments. Radiant heat was presented through the floor of a finely perforated stainless steel platform to the midplantar region of the hind paw.
After establishing stable baseline responsiveness to mechanical and thermal stimuli, separate groups of rats received intraperitoneal injections of OR486 (30 mg/kg i.p.; N=8) or vehicle (N=8) one hour prior to behavioral testing. Responsiveness to von Frey filaments was reassessed at 30 min intervals for 2 hours. Paw withdrawal latencies to radiant heat were subsequently assessed at 2.5 hours into the testing procedure. Twenty-four hours later, baseline responsiveness to mechanical and thermal stimuli was reestablished. Animals received OR486 (30 mg/kg i.p.) or vehicle (consistent with the previous day). Thirty minutes following administration of drug or vehicle, separate groups of rats received intraplantar carrageenan (N=4 per group) or saline (N=4 per group). Responsiveness to von Frey filaments was reassessed at 30 min intervals for 2 hours following the induction of inflammation. Paw withdrawal latencies to radiant heat were subsequently assessed at 2.5 hours post carrageenan.
Rats were handled and habituated to the testing environment 2-3 days prior to establishing baseline responsiveness. On test days, rats were placed in plexiglass cages positioned over an elevated perforated stainless steel platform and habituated to the environment for 15-20 minutes prior to testing. Paw withdrawal threshold to punctate mechanical stimulation was assessed using the up-down method of Chaplan (Chaplan et al. (1994)). […]

TNFα, IL-1β, and IL-6 = assay: In vivo plasma cytokine measurement (ELISA); set-up: species or system rat; settings: rats; ICI118,551 or SR59230A prior to OR486, low, middle and high dose pooled; relative to vehicle prior to OR486
Description: Blood was centrifuged and plasma separated from red blood cells. Plasma IL-6 was measured in duplicate using enzyme-linked immunosorbant assay (ELISA) kits from R&D systems (Minneapolis, Minn., U.S.A.). Plasma TNFα and IL-1β were measured in duplicate by the University of North Carolina Proteomics Ilmmunotechnologies Core using ELISA kits from Biosource (Camarillo, Calif., U.S.A.) and the National Institute for Biological Standards and Control (UK), respectively.

[1] = tested on: Mouse macrophages (RAW 264.7); assay: In vitro cytokine measurement (real time PCR of transcripts) in macrophages; assay type: cell-based
Description: Cell growth media consisted of Dulbecco's modified Eagle's medium supplemented with 10% heat-inactivated fetal bovine serum (Sigma, St. Louis, Mo., U.S.A.) and 1× penicillin-streptomycin (Gibco, Carlsbad, Calif., U.S.A.). Cells were maintained in a humidified atmosphere of 95% air and 5% CO2. Total RNA was isolated using the RNeasy Mini Kit (Qiagen, Valencia, Calif., U.S.A.). RNA was then treated with 2 units of DNase I (Ambion, Austin, Tex., U.S.A.) at 37° C. for 30 min. Reverse transcription was performed according to the manufacturer's instructions. Briefly, the reverse transcription reaction mixture consisted of 1 μg DNase 1-treated RNA, 500 ng oligo-[…], 10 mM dNTP, 40 units RNasin (Promega, Madison, Wis., U.S.A.), and 200 units of reverse transcriptase SUPERSCRIPT IIITM (Invitrogen, Carlsbad, Calif., U.S.A.). cDNA synthesis was carried out at 50° C. for 1 hr followed by inactivation of reverse transcriptase at 70° C. for 15 min. […] Cell maintenance and 3T3-L1 preadipocyte differentiation is described herein below. For pharmacological experiments, cells were seeded at a density of 5×10^5 cells/well in a 12-well plate (Corning). Total RNA was isolated and reverse transcribed as described in the supplementary materials. […] TNFα, IL-1β, and IL-6 transcript levels were normalized to Glyceraldehyde-3-phosphate dehydrogenase (GAPDH).

[2] = pretreatment 30 min: betaxolol 0.3 μM, ICI118,551 0.3 μM, SR59230A 0.1 μM, then salmeterol 0.5 μM 1 hr
[3] = salmeterol 0.5 μM, 1 hr treatment, normalized to GAPDH

`CCc1ccccc1OC[C@@H](O)CN[C@H]1CCCc2ccccc21` [SR59230A, (1-(2-ethylphenoxy)-3-[[(1S)-1,2,3,4-tetrahydro-1-naphthalenyl]amino]-(2S)-2-propanol)] was tested, and the “blockade of CL316243-induced increase in adipocyte IL-6 transcript levels” value (3T3-L1 adipocytes; pretreatment 30 min: betaxolol 0.3 μM, ICI118,551 0.3 μM, SR59230A 0.1 μM, then CL316243 0.3 μM 1 hr) was “completely blocked”, the “blockade of OR486-induced hyperalgesia / heightened pain sensitivity” value (Sprague-Dawley rats) was “partially blocked” and the “paw withdrawal latency to radiant heat after OR486, selective βAR antagonists” value (Sprague-Dawley rats) was “increased paw withdrawal latency”. The “paw withdrawal frequency to mechanical stimuli after OR486, selective βAR antagonists” value (Sprague-Dawley rats) was “decreased paw withdrawal frequency”, the “paw withdrawal threshold to mechanical stimuli after OR486, selective βAR antagonists” value (Sprague-Dawley rats) was “increased paw withdrawal threshold” and the “paw withdrawal frequency to mechanical stimuli, antagonist in the absence of OR486” value (Sprague-Dawley rats) was “failed to affect”. The “paw withdrawal latency to radiant heat, antagonist in the absence of OR486” value (Sprague-Dawley rats) was “failed to affect”, the “paw withdrawal threshold to mechanical stimuli, antagonist in the absence of OR486” value (Sprague-Dawley rats) was “failed to affect” and the “levels of IL-1β after OR486, selective β2 or β3 antagonist” value (TNFα, IL-1β, and IL-6) was “decreased levels”. The “levels of IL-6 after OR486, selective β2 or β3 antagonist” value (TNFα, IL-1β, and IL-6) was “decreased levels” and the “levels of TNFα after OR486, selective β2 or β3 antagonist” value (TNFα, IL-1β, and IL-6) was “decreased levels”.

In the case of `Cc1ccc(OCC(O)C(C)NC(C)C)c2c1CCC2` (single isomer, unassigned; (-)) [ICI118,551, (−)-1-(2,3-[dihydro-7-methyl-1H-inden-4-yl]oxy)-3-([1-methylethyl]-amino)-2-butanol], the “blockade of salmeterol-induced increase in adipocyte TNFα and IL-6 transcript levels” value (3T3-L1 adipocytes; [2]) is reported as “completely blocked”, the “blockade of salmeterol-induced increase in macrophage IL-1β and IL-6 transcript levels” value [1, 2] is reported as “completely blocked” and the “blockade of OR486-induced hyperalgesia / heightened pain sensitivity” value (Sprague-Dawley rats) is reported as “partially blocked”. For the same compound, the “paw withdrawal latency to radiant heat after OR486, selective βAR antagonists” value (Sprague-Dawley rats) was “increased paw withdrawal latency”, the “paw withdrawal frequency to mechanical stimuli after OR486, selective βAR antagonists” value (Sprague-Dawley rats) was “decreased paw withdrawal frequency” and the “paw withdrawal threshold to mechanical stimuli after OR486, selective βAR antagonists” value (Sprague-Dawley rats) was “increased paw withdrawal threshold”. For the same compound, the “paw withdrawal frequency to mechanical stimuli, antagonist in the absence of OR486” value (Sprague-Dawley rats) was “failed to affect”, the “paw withdrawal latency to radiant heat, antagonist in the absence of OR486” value (Sprague-Dawley rats) was “failed to affect” and the “paw withdrawal threshold to mechanical stimuli, antagonist in the absence of OR486” value (Sprague-Dawley rats) was “failed to affect”. The “levels of IL-1β after OR486, selective β2 or β3 antagonist” value (TNFα, IL-1β, and IL-6) was “decreased levels”, the “levels of IL-6 after OR486, selective β2 or β3 antagonist” value (TNFα, IL-1β, and IL-6) was “decreased levels” and the “levels of TNFα after OR486, selective β2 or β3 antagonist” value (TNFα, IL-1β, and IL-6) was “decreased levels”.

In the case of `OCc1cc(C(O)CNCCCCCCOCCCCc2ccccc2)ccc1O` (stereo not drawn) [salmeterol], the “increase in IL-6 mRNA levels in adipocytes” value (3T3-L1 adipocytes; salmeterol 0.5 μM or CL316243 0.3 μM, 1 hr treatment, normalized to GAPDH) is reported as 8 fold, the “increase in TNFα mRNA levels in adipocytes” value (3T3-L1 adipocytes; [3]) is reported as 6 fold and the “increase in IL-1β mRNA levels in macrophages” value [1, 3] is reported as 38 fold. For the same compound, the “increase in IL-6 mRNA levels in macrophages” value [1, 3] was 6.5 fold.

Source: patent publication US11085081B2, “Methods and materials for determining pain sensitivity and predicting and treating related disorders” (The University of North Carolina at Chapel Hill, priority 2004, dated 2021)
